# How the values were obtained:
# XF498 = test: In vitro cytotoxicity against CNS cancer XF 498 cell lines; format: functional, cell-based, Homo sapiens
# SK-OV-3 = test: In vitro cytotoxicity against ovarian cancer SK-OV-3 cell lines; format: functional, cell-based, Homo sapiens
# L1210 [1] = test: In vitro cytotoxicity against Cisplatin sensitive L1210/parent leukemia cell lines.; format: functional, cell-based, Mus musculus
# L1210 [2] = test: In vitro cytotoxicity against Cisplatin resistant L1210/CPR leukemia cell lines.; format: functional, cell-based, Mus musculus
# A549 = test: In vitro cytotoxicity against lung cancer A 549 cell lines; format: functional, cell-based, Homo sapiens
# [3] = Relative resistance calculated as the ratio of IC50 of resistant sublime to that of IC50 of parent cell line.; format: functional
Substance,IC50 (XF498) [µM],IC50 (SK-OV-3) [µM],IC50 (L1210 [1]) [nM],IC50 (L1210 [2]) [µM],IC50 (A549) [µM],Relative resistance [3]
CARBOPLATIN [listing 1 of 2 here],13.6,13.9,2000,45.3,37.7,–
CARBOPLATIN [listing 2 of 2 here],–,–,–,–,–,22.7
CISPLATIN [listing 1 of 2 here],2.9,–,–,3.4,3.2,–
CISPLATIN [listing 2 of 2 here],–,–,–,–,–,34
"cis-Dichloro[(2S,3R,4S)-2-aminomethyl-3,4-(O-isopropylidene)dihydrxypyrrolidine]platinum (II) [listing 1 of 2 here]",6.2,7.8,300,1.6,10.9,–
"cis-Dichloro[(2S,3R,4S)-2-aminomethyl-3,4-(O-isopropylidene)dihydrxypyrrolidine]platinum (II) [listing 2 of 2 here]",–,–,–,–,–,5.3
"cis-Dichloro[(2S,3R,4S)-2-aminomethyl-3,4-dihydroxypyrrolidine]platinum (II) [listing 1 of 2 here]",14.8,15.4,1400,10.9,32.5,–
"cis-Dichloro[(2S,3R,4S)-2-aminomethyl-3,4-dihydroxypyrrolidine]platinum (II) [listing 2 of 2 here]",–,–,–,–,–,7.8

# Source: ChEMBL document CHEMBL1149968, “Synthesis and in vitro cytotoxicity of cis-dichloro[(2S,3R,4S)-2-aminomethyl-3,4-(O-isopropylidene)dihydroxy- or -3,4-dihydroxypyrrolidine]platinum(II)” (Bioorg Med Chem Lett, 1996)
